Experimental data published in patent US20210371483A1, “Composition for Inactivating Spores by Means of Antimicrobial Peptides” (Robert Bosch Gesellschaft Fur Medizinische Fruschung mbH, priority 2016, published 2021).
Entries after “also recorded” stand apart in the source; their conditions may differ. Where no end group is shown, it is not given here.

Tests used:
Type in all cases: cell-based, Clostridium difficile
[1] = tested on: C. difficile spores; assay: Incubation of C. difficile spore suspension with antimicrobial peptides, plating and counting of germinated spores; settings: spore suspension (at least 70% spores) incubated 60 minutes with peptide; plated on Columbia blood agar, anaerobic at least 4 days
Procedure: (§1) The effects of antimicrobial peptides on C. difficile spores were investigated by first enriching a bacterial suspension with spores so that at least 70% spores were present. The spore suspension was incubated for 60 minutes with various defensins (HBD1, HBD2, HBD3) and the cathelicidin LL37 (recombinant defensins: Peptanova Sandhausen, HBD1 order No. 4337; HBD2; 4338, HBD3 4382/recombinant LL37: Innovagen Lund Sweden, order No. SP-LL-37-1). Thereafter, aliquots of the samples were plated out on Columbia blood agar and incubated anaerobically for at least 4 days. The germinated spores in an untreated control and the preparations containing antimicrobial peptides were counted.

[2] = tested on: C. difficile spores; assay: Spore germination after incubation, wash-out and heat killing of residual vegetative cells (FIG. 1); settings: for decrease in germinating spores: incubation, wash-out, heat 61° C., 30 min, as a function of peptide concentration
Procedure: as §1
In further experiments, the inventers wanted to make the unambiguous assignment that resultant bacterial colonies can be attributed with certainty to the germinated spores and not to the steady growth of residual vegetative cells. To this end, incubation and wash-out were followed by killing the residual vegetative cells using heat (61° C., 30 min). This heat treatment kills only the vegetative cells, but not the spores.

[3] = tested on: C. difficile spores; assay: Spore germination experiment repeated with wash-out of the peptides after incubation; settings: peptides washed out at end of incubation, medium free of peptides
Procedure: as §1
In order to able to establish with certainty whether either germinating bacteria are rapidly killed by the presence of antimicrobial peptides in the medium or the spores are in fact prevented from germinating, the experiment was repeated, but at the end of the incubation time, the peptides were washed out and the medium was free of peptides.

[4] = tested on: C. difficile spores; assay: Electron microscopy of C. difficile spores incubated with gold-labeled HBD3 peptides (FIGS. 2 and 3)

Substance	germinated spores in comparison with the controls [1]	difference between the effect of LL37 and HBD3 ([2]; at larger concentrations (10 μg/mL))	difference between the effect of LL37 and HBD3 ([2]; at low concentrations)	decrease in germinating spores [2]	inhibitory effect on spore germination despite wash-out [3]	number of germinating spores ([2]; 2.5 μg/mL peptide, after wash-out and heat treatment)	efficacy compared with the other effective peptide ([2]; in lower concentrations, after wash-out and heat treatment)	structural destruction of the spores [4]	penetration into the spores ([4]; gold-labeled HBD3 peptides)
cathelicidin LL-37 [LL37]	significantly fewer germinated spores	hardly noticeable	distinct difference	concentration-dependent decrease in germinating spores	maintained				
human beta-defensin-3 (GIINTLQKYYCRVRGGRCAVLSCLPKEEQIGKCSTRGRKCCRRKK; ends and bridges not checked; cysteine pairing not given here; UniProt P81534 23-67, looked up) [HBD3, Human beta-defensin 3, protein composed of 45 amino acids, net charge +11; recombinant, Peptanova order No. 4382]	significantly fewer germinated spores			concentration-dependent decrease in germinating spores	maintained	greatly lowering the number of germinating spores	somewhat higher efficacy	destroyed structurally; also recorded: destroys parts of the spore structure	able to penetrate into the spores; also recorded: penetrates into the exosporium
